Data taken from patent US20030065039A1, “Biologically active 1,3-bis-aromatic-prop-2-en-1-ones, 1,3-bis-aromatic-propan-1-ones, and 1,3-bis-aromatic-prop-2-yn-1-ones” (Statens Serum Institute, priority 1997, published 2003).
In brackets after ≈: the same amount, converted by molar mass.

Key:
[1] = tested on: Plasmodium falciparum; assay: Plasmodium falciparum Assay; assay type: cell-based; settings: Plasmodium falciparum; 3-H-hypoxanthine incorporation, 48 hours; read-out: Plasmodium IC50 ± SD
Protocol: The experiments in which compounds were tested for their ability to inhibit parasite growth were performed by a modification of the method originally described by Jensen et al. (1982). 50 μl of parasitized erythrocytes (parasitemia approximately 1%) in a concentration of 5×10^8/ml and 50 μl of RPMI medium containing different concentrations of the test compound was added to each well of a 96 well flat-bottomed microtiter plate. The cultures were then incubated for 48 hours, 24 hours before termination of the culture adding 20 μl of 3-H-hypoxanthine (40 uCi/ml) was added to each well. The cultures were then harvested onto glass fiber filters using a Skatron cell harvester, and the incorporation of 3-H-hypoxanthine into the DNA of dividing parasites was determined by liquid scintillation spectrometry. Control cultures with uninfected erythrocytes and infected erythrocytes in RPMI medium without test compounds were always performed in parallel to the test cultures. In some experiments thin smears of parasite cultures were stained by Giemsa and examined under microscope (×1000). The test compounds described above, were diluted in RPMI medium immediately before use. In the experiments, chloroquine phosphate was used as a positive control as a drug known to inhibit parasite growth.

[2] = tested on: human lymphocytes; assay: Lymphocyte Proliferation Assay; assay type: cell-based; settings: Lymphocyte; PHA provoked proliferation of human lymphocytes; read-out: Lymphocytes IC50 ± SD
Protocol: Human blood mononuclear cells (BMNC) from heparinized blood were isolated by metrizoate sodium-Ficoll density gradient centrifugation, washed 3 times in RPMI 1640 medium supplemented with 5% FCS and with 400 IU of penicillin plus 400 μg/ml streptomycin. BMNC were resuspended in the medium and cultured in triplicate, 0.63×10^5/ml and 160 μl per vial, in round-bottom microtiter plates with 20 μl of various concentrations of the test compound. Immediately prior to incubation, optimum concentrations of the mitogen phytohaemagglutinin (PHA) and the antigen purified protein derivative of tuberculin (PPD) were added to the cultures in a volume of 20 μl. Unstimulated control cultures were always included. Cultures were incubated for 3 or 7 days. The degree of lymphocyte proliferation was estimated by ^3H-thymidine (1 μCi per well) addition 24 h before the cells were harvested on glass fiber filters by means of a harvesting machine), and ^3H-thymidine incorporation was measured in a liquid scintillation counter. For each set of triplicate values, the median was recorded. Unstimulated cultures were always included as controls.

[3] = tested on: Leishmania promastigotes; assay: Leishmania promastigotes Assay; assay type: cell-based; settings: Leishmania; promastigotes, 3H-thymidine uptake; read-out: Leishmania IC50 ± SD
Protocol: A WHO reference vaccine strain of L. major originally isolated from a patient in Iran and a Kenyan strain of L. donovani (MHOM(/KE/85/NLB 274) were cultured in medium 199 containing 0.02 mg/ml gentamycin, 25 mM Hepes, 4 mM L-glutamine, and 20% heat inactivated fetal calf serum (FCS). Incubation was carried out at 26° C. Promastigotes were harvested on day 3 and 6 of the culture and used for the parasite growth inhibition.
The effect of the test compounds on promastigotes was assessed by a method similar to the one described by Pearson et al., by incubating promastigotes (3×10^6/ml) at 26° C. for 2 hrs in the presence of a given compound or the medium alone in 96 wells flat bottom microtiter plates. Following incubation, 100 μCi of 3H-thymidine was added to each well and further incubated for 18 hrs. Promastigotes were then harvested on filter paper by means of a cell harvester, extensively washed with distilled water and counted in a scintillation counter. The promastigotes were also counted microscopically and their flagellar motility was assessed.

[4] = tested on: Helicobacter pylori; assay: Helicobacter species Assay (agar plate, MIC); assay type: cell-based
Protocol: (§1) 20 strains of Helicobacter pylori were used in an agar plate assay. The compounds were incorporated in the agar plates at different concentrations as described in the examples and were then inoculated with different strains of Helicobacter pylori followed by incubation in a microaerophilic atmosphere at 37° C. for 72 hours. The number of colony-forming units (CFU) were counted after the incubation period. The MIC values were determined as the minimal concentration required to inhibit growth of the bacteria.
(§2) Stock solutions were made at a concentration of 1 mg/ml by dissolving 1 mg of each compound in 100 μl DMSO (dimethylsulfoxide) followed by addition of 900 μl of heat-inactivated fetal claf serum (HFCS). These stock solutions were diluted with HFCS to make solutions having the following concentrations: 320 μg/ml, 160 μg/ml, 80 μg/ml, 40 μg/ml and 20 μg/ml. Dilution rows were made with 3 ml aliquots in vials containing the compounds in the following final test concentrations: 16 μg/ml, 8 μg/ml, 4 μg/ml, 2 μg/ml and 1 μg/ml. As control was used DMSO-HFCS containing an amount of DMSO equal to the amount of test compound in the solution with 320 μg/ml compound.
as §1, with “Bacteria: 20” for “20”, “concentrations” for “concentrations as described in the examples”, “and then they” for “and”, “were” for “were then”, “incubation at” for “incubation in a”, “C. in” for “C. for”
as §2, with “concentrations: 2560 μg/ml, 1280 μg/ml, 640 μg/ml,” for “concentrations:”, “160 µg/ml and” for “160 μg/ml,”, “80” for “80 μg/ml, 40 μg/ml and 20”, “concentrations: 128 μg/ml, 64 μg/ml, 32 μg/ml, 12” for “concentrations: 16”, “8” for “8 μg/ml, 4 μg/ml, 2”, “and 4” for “and 1”
Bacteria: 20 strains of Helicobacter pylori were used in an agar plate assay. The same method as described above under Experiment A was employed and MIC values were determined.

melting point | IC50 [1] | IC50 [3] | MIC ([4]; Helicobacter pylori, 20 strains of H. pylori, agar plate, 72 hours, read-out: MIC) | Structure (SMILES) | IC50 [2] | strains of Helicobacter pylori inhibited ([4]; at a concentration of 16 μg/ml, 20 strains) | No. strains inhibited/No. strains tested ([4]; at the MIC of the same line)
122.6 to 123 °C | 10 µM | 9.3 ± 1 µM | – | COc1ccc(C(=O)/C=C/c2ccccc2O)c(OC)c1OC [2-OH-2′,3′,4′,-OCH3, 2-hydroxy-2′,3′,4′-trimethoxychalcone] | 9 ± 0.7 µM | – | –
111.6 to 112.5 °C | – | 8.3 ± 0.9 µM | – | COc1cc(/C=C/C(=O)c2ccc(OC)c(OC)c2OC)cc(OC)c1 [2′,3′,4′,3,5-OCH3, 3,5,2′,3′,4′-pentamethoxychalcone] | 8.7 ± 0.5 µM | – | –
159.8 to 160.5 °C | 13 µM | 7.3 ± 1 µM | – | COc1cc(/C=C/C(=O)c2ccccc2N(C)C)cc(OC)c1 [2′-N(CH3)2-3,5-OCH3, 3,5-dimethoxy-2′-dimethylaminochalcone] | 5.7 ± 0.3 µM | – | –
98.4 to 98.9 °C | 7.4 µM | 3.4 ± 0.5 µM | – | COc1cc(/C=C/C(=O)c2ccccc2[N+](=O)[O-])cc(OC)c1 [2′-NO2-3,5-OCH3, 3,5-dimethoxy-2′-nitrochalcone] | 3.7 ± 0.2 µM | – | –
110.2 to 110.9 °C | 20 µM | 3.8 ± 0.9 µM | – | COc1cc(/C=C/C(=O)c2ccccc2O)cc(OC)c1 [2′-OH-3,5-OCH3, 3,5-dimethoxy-2′-hydroxychalcone] | 8.1 ± 0.8 µM | – | –
87.2 to 87.9 °C | 12 µM | 20 ± 3 µM | – | COc1ccc(C(=O)/C=C/c2cccc(N(C)C)c2)c(OC)c1OC [3-N(CH3)2-2′,3′,4′-OCH3, 3-dimethylamino-2′,3′,4′-trimethoxychalcone] | 26 ± 1 µM | – | –
130.1 to 130.7 °C | 5.5 µM | 17 ± 2 µM | – | COc1ccc(C(=O)/C=C/c2cccc([N+](=O)[O-])c2)c(OC)c1OC [3-NO2-2′,3′,4′-OCH3, 3-nitro-2′,3′,4′-trimethoxychalcone] | 36 ± 2 µM | – | –
75.6 to 78.9 °C | – | 18 ± 3 µM | – | COc1cccc(C(=O)/C=C/c2ccc(OC)cc2OC)c1 [3′,2,4-OCH3, 2,4,3′-trimethoxychalcone] | 42 ± 2 µM | – | –
81.8 to 82.6 °C | 29 µM | 5.8 ± 0.7 µM | – | COc1cc(/C=C/C(=O)c2cccc(N(C)C)c2)cc(OC)c1 [3′-N(CH3)2-3,5-OCH3, 3,5-dimethoxy-3′-dimethylaminochalcone] | 5 ± 0.2 µM | – | –
88.1 to 88.7 °C | – | 8.6 µM | – | COc1ccc(/C=C/C(=O)c2cccc([N+](=O)[O-])c2)c(OC)c1 [3′-NO2-2,4-OCH3, 2,4-dimethoxy-3′-nitrochalcone] | 18 ± 2 µM | – | –
126.2 to 126.8 °C | 28 µM | 3.7 ± 0.6 µM | – | COc1cc(/C=C/C(=O)c2cccc(O)c2)cc(OC)c1 [3′-OH-3,5-OCH3, 3,5-dimethoxy-3′-hydroxychalcone] | 3.2 ± 0.4 µM | – | –
131.7 to 133 °C | 7.6 µM | 8.6 ± 0.9 µM | – | COc1ccc(C(=O)/C=C/c2ccc(C#N)cc2)c(OC)c1OC [4-CN-2′,3′,4′-OCH3, 4-cyano-2′,3′,4′-trimethoxychalcone] | 5.4 ± 0.3 µM | – | –
115.7 to 116 °C | – | 42 ± 6 µM | – | O=C(/C=C/c1ccc(Oc2ccccc2)cc1)c1ccc(F)cc1 [4′-F-4-OC6H5, 4-phenoxy-4′-fluorochalcone] | 33 ± 2 µM | – | –
160.9 to 161.1 °C | 200 µM | – | – | O=C(/C=C/c1ccc(Oc2ccccc2)cc1)c1ccc(C2CCCCC2)cc1 [4′-cC6H11-4-OC6H5, 4-phenoxy-4′-cyclohexylchalcone] | – | – | –
107.1 to 108 °C | 9.3 µM | 5.9 ± 0.4 µM | 16 µg/mL (≈ 46.6 µM) | COc1ccc(C(=O)/C=C/c2ccccc2[N+](=O)[O-])c(OC)c1OC [PH98, 2-nitro-2′,3′,4′-trimethoxychalcone] | 7 ± 0.6 µM | 4 out of 20 | 6/20

Structure (SMILES) | melting point | IC50 [1] | IC50 [3] | MIC ([4]; Helicobacter pylori, 20 strains of H. pylori, agar plate, 72 hours, read-out: MIC) | IC50 [2] | strains of Helicobacter pylori inhibited ([4]; at a concentration of 16 μg/ml, 20 strains) | No. strains inhibited/No. strains tested ([4]; at the MIC of the same line)
CCCCOc1ccccc1/C=C/C(=O)c1ccc(OC)c(OC)c1OC [2-OC4H9-2′,3′,4′-OCH3, 2-butoxy-2′,3′,4′-trimethoxychalcone] | 129.4 to 130.2 °C | 7.8 µM | 26 ± 1 µM | – | 52 ± 3 µM | – | –
CCCCOc1ccccc1C(=O)/C=C/c1cc(OC)cc(OC)c1 [2′-OC4H9-3,5-OCH3, 3,5-dimethoxy-2′-butoxychalcone] | 69.5 to 70.1 °C | 25 µM | 7.2 ± 1.2 µM | – | 13 ± 1 µM | – | –
